Results reported in patent US8940765B2, “N-linked quinolineamide M1 receptor positive allosteric modulators” (Merck Sharp & Dohme Corp., priority 2011, dated 2015).

Target: T1, acetylcholine muscarinic M1 receptor (Homo sapiens, UniProt P11229)
T1 construct: expressed in transfected cells; host or cells: CHOnfat cells (CHO with NFAT reporter background) stably expressing hM1, Geneticin selection
T1 sequence (P11229 1-460): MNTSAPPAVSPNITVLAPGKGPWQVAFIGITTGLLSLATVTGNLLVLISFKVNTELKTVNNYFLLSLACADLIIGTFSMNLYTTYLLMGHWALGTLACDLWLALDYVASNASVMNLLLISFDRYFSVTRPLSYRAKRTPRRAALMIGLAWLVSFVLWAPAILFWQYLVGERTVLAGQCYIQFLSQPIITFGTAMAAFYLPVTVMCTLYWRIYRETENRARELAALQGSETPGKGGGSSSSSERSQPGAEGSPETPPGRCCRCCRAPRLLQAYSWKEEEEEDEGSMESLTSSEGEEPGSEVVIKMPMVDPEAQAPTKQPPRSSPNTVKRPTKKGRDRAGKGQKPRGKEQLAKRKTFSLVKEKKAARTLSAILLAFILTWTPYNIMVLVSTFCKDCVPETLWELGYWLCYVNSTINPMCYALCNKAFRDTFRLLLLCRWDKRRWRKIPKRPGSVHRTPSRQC
Assay: muscarinic FLIPR assay: intracellular calcium in CHOnfat/hM1 cells, potentiation of EC20 acetylcholine
Type: cell-based
Conditions: FLIPR Ca2+, 4 min preincubation, then EC20 acetylcholine (3 nM final), read-out: IP Value (inflection point)
Method: The assay studies the effect of one or several concentrations of test compounds on basal or acetylcholine-stimulated Ca^2+ levels using FLIPR.
Compounds are prepared and subjected to a preincubation period of 4 min. Thereafter, a single EC20 concentration of acetylcholine is added to each well (3 nM final). The intracellular Ca^2+ level of each sample is measured and compared to an acetylcholine control to determine any modulatory activity.
Cells: CHOnfat/hM1, hM2, hM3 or hM4 cells are plated 24 hr before the assay at a density of 18,000 cells/well (100 μL) in a 384 well plate. CHOnfat/hM1 and CHOnfat/hM3 Growth Medium: 90% DMEM (Hi Glucose); 10% HI FBS; 2 mM L-glutamine; 0.1 mM NEAA; Pen-Strep; and 1 mg/ml Geneticin, are added. For M2Gqi5CHOnfat and M4Gqi5CHOnfat cells, an additional 600 ug/ml hygromycin is added.
Equipment: 384 well plate, 120 μL addition plate; 96-well Whatman 2 ml Uniplate Incubator, 37° C., 5% CO2; Skatron EMBLA-384 Plate Washer; Multimek Pipetting System; Genesis Freedom 200 System; Mosquito System; Temo Nanoliter Pipetting System; and FLIPR384 Fluorometric Imaging Plate Reader System are used.
Buffers. Assay Buffer: Hanks Balanced Salt Solution, with 20 mM Hepes, 2.5 mM Probenecid (Sigma P-8761) first dissolved in 1 N NaOH, 1% Bovine Serum Albumin (Sigma A-9647). Dye Loading Buffer: Assay Buffer plus 1% Fetal Bovine Serum and Fluo-4AM/Pluronic Acid Mixture. 2 mM Fluo-4AM ester stock in DMSO (Molecular Probes F-14202) Concentration of 2 μM in buffer for a final concentration of 1 μM in Assay. 20% Pluronic Acid Solution stock, with concentration of 0.04% in Buffer, 0.02% in Assay.
65 μl, of 2 mM Fluo-4AM are mixed with 130 μL of 20% Pluronic Acid. The resulting solution and 650 μL FBS is added to the assay buffer for a total volume of 65 mL. Positive Controls: 4-Br-A23187: 10 mM in DMSO; final concentration 10 μM. Acetylcholine: 10 mM in water, working stock at both 20 μM and 30 μM in assay buffer, final concentration of 10 μM. This is used to check the maximum stimulation of the CHOK1/hM1 cells. 20 μM (2×) acetylcholine is added in the preincubation part of the assay, and the 30 μM (3×) stock is added in the second part. (EC20)Acetylcholine: 10 mM in water, working stock of 9 nM (3×), and final concentration in assay is 3 nM. This is used after the preincubation with test compounds. Addition of the EC20 Acetylcholine to each well with a test compound will ascertain any modulator activity. 24 wells contain 3 nM Acetylcholine alone as a control.
Determining Activity of Putative Compounds:
Screening Plate: Compounds are titrated in 96-well plates (columns 2-11), 100% DMSO, started at a concentration of 15 mM (150× stock concentration), and 3-fold serial dilutions using Genesis Freedom200 System. Four 96-well plates are combined into a 384-well plate using Mosquito Nanoliter Pipetting System by transferring 1 μl of serial diluted compounds to each well, and 1 mM acetylcholine (100× stock concentration) were added as a control. Using Temo, 49 μl assay buffer is added to each well of the 384-well plate right before assay.
In a 96-well Whatman 2 ml Uniplate, 9 nM Acetylcholine (3×) is pipetted into wells corresponding to the screening compounds, and into control wells. The 30 μM acetylcholine control (3×) is added into control wells, and the 3× agonist plate is transferred into a 384 well plate.
Cells are washed three times with 100 μL of buffer, leaving 30 μL of buffer in each well. Using Multimek, 30 μl, of Dye Loading Buffer is added into each well and incubated at 37° C., 5% CO2 for up to one hr.
After […], the cells are washed three times with 100 μL of buffer, leaving 30 μL of buffer in each well. The cell plate, screening plate, and agonist addition plates are placed on the platform in the FLIPR and the door closed. A signal test to check background fluorescence and basal fluorescence signal is performed. Laser intensity is adjusted if necessary. […]

Row | Compound | EC50
1 | N#CC1(c2ccccn2)CCN(Cc2cc(C(=O)N[C@H]3CCCC[C@@H]3O)nc3ccccc23)CC1 [Example 1, 4-[(4-cyano-4-pyridin-2-ylpiperidin-1-yl)methyl]-N-[(1S,2S)-2-hydroxycyclohexyl]quinoline-2-carboxamide] | 54 nM
2 | Cn1cc(N2CCN(Cc3cc(C(=O)N[C@H]4CCCC[C@@H]4O)nc4ccccc34)CC2)cn1 [Example 2, N-[(1S,2S)-2-hydroxycyclohexyl]-4-{[4-(1-methyl-1H-pyrazol-4-yl)piperazin-1-yl]methyl}quinoline-2-carboxamide] | 369 nM
3 | Cc1ccnc(C2(C#N)CCN(Cc3cc(C(=O)N[C@H]4CCCC[C@@H]4O)nc4ccccc34)CC2)c1 [Example 3, 4-{[4-cyano-4-(4-methylpyridin-2-yl)piperidin-1-yl]methyl}-N-[(1S,2S)-2-hydroxycyclohexyl]quinoline-2-carboxamide] | 20 nM
4 | N#CC1(c2ccccc2)CCN(Cc2cc(C(=O)N[C@H]3CCCC[C@@H]3O)nc3ccccc23)CC1 [Example 4, 4-[(4-cyano-4-phenylpiperidin-1-yl)methyl]-N-[(1S,2S)-2-hydroxycyclohexyl]quinoline-2-carboxamide] | 325 nM
5 | N#CC1(c2ccccc2F)CCN(Cc2cc(C(=O)N[C@H]3CCCC[C@@H]3O)nc3ccccc23)CC1 [Example 5, 4-{[4-cyano-4-(2-fluorophenyl)piperidin-1-yl]methyl}-N-[(1S,2S)-2-hydroxycyclohexyl]quinoline-2-carboxamide] | 81 nM
6 | N#CC1(c2ccccc2Cl)CCN(Cc2cc(C(=O)N[C@H]3CCCC[C@@H]3O)nc3ccccc23)CC1 [Example 6, 4-{[4-(2-chlorophenyl)-4-cyanopiperidin-1-yl]methyl}-N-[(1S,2S)-2-hydroxycyclohexyl]quinoline-2-carboxamide] | 117 nM
7 | Cc1ccccc1C1(C#N)CCN(Cc2cc(C(=O)N[C@H]3CCCC[C@@H]3O)nc3ccccc23)CC1 [Example 7, 4-{[4-cyano-4-(2-methylphenyl)piperidin-1-yl]methyl}-N-[(1S,2S)-2-hydroxycyclohexyl]quinoline-2-carboxamide] | 136 nM
8 | Cc1ccnc(C2(C#N)CCN(Cc3cc(C(=O)N[C@H]4CCOC[C@@H]4O)nc4ccccc34)CC2)c1 [Example 8, 1,5-anhydro-3-{[(4-{[4-cyano-4-(4-methylpyridin-2-yl)piperidin-1-yl]methyl}quinolin-2-yl)carbonyl]amino}-2,3-dideoxy-L-threo-pentitol] | 27 nM
9 | N#CC1(c2cccnc2)CCN(Cc2cc(C(=O)N[C@H]3CCCC[C@@H]3O)nc3ccccc23)CC1 [Example 9, 4-[(4-cyano-4-pyridin-3-ylpiperidin-1-yl)methyl]-N-[(1S,2S)-2-hydroxycyclohexyl]quinoline-2-carboxamide] | 54 nM
